Experimental data as given in ChEMBL document CHEMBL5316275 (J Med Chem, 2023).

Molecular target: Albumin (Homo sapiens, UniProt P02768)
Test: Binding affinity to human serum albumin assessed as association constant measured after 18 hrs by equilibrium dialysis method

Chain of Albumin (P02768 whole entry): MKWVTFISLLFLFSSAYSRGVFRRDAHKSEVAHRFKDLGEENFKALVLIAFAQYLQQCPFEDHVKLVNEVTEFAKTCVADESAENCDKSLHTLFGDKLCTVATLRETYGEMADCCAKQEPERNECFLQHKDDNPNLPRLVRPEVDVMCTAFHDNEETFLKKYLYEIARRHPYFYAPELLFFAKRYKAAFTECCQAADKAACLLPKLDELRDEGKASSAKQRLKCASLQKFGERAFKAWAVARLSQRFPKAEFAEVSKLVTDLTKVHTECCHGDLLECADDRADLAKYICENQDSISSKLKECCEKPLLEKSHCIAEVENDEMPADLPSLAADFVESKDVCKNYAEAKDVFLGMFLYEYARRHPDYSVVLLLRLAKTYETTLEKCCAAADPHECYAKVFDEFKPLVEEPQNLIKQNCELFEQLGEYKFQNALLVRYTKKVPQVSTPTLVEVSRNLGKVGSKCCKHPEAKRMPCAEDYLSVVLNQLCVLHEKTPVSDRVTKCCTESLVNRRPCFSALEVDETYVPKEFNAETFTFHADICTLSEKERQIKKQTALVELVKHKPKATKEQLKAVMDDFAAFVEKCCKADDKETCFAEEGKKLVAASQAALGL

K	Compound
1.91 10^5/M	COC(=O)CC/C(C)=C/Cc1c(O)c2c(c(C)c1OC)COC2=O
0.83 10^5/M	COc1c(C)c2c(c(O)c1C/C=C(\C)CCC(=O)OCCN1CCOCC1)C(=O)OC2 [MYCOPHENOLATE MOFETIL]
